Measurements reported in publication PMC8069832, “New Amides and Phosphoramidates Containing Selenium: Studies on Their Cytotoxicity and Antioxidant Activities in Breast Cancer” (Antioxidants, 2021).
Like-named read-outs stand apart in the source and are kept apart here.

Experiments:
CCRF-CEM [1] = assay: cells; details: Homo sapiens, 48 h; for activity at 10 µM: read-out: Cell growth (%) CCRF-CEM; for GI50: read-out: GI50 CCRF-CEM; for CC50: read-out: LC50 CCRF-CEM; for IC (TGI): read-out: TGI CCRF-CEM
MCF-7 [2] = assay: cells; details: Homo sapiens, MCF7, 48 h; for activity at 10 µM: read-out: Cell growth (%) MCF-7; for GI50: read-out: GI50 MCF-7, 48 h, average ± SEM; for CC50: read-out: LC50 MCF-7; for IC (TGI): read-out: TGI MCF-7
184B5 = assay: MTT cytotoxicity in nonmalignant mammary gland derived cells; format: cell-based; details: for GI50 / IC (TGI): Homo sapiens, 184B5, nonmalignant cells, 48 h; for GI50: read-out: GI50 184B5; for IC (TGI): read-out: TGI 184B5
Description: (§1) Cell lines were provided by the European Collection of Cell Cultures (ECACC) or by the American Type Culture Collection (ATCC). Seven cell lines were used: MCF-7 (breast adenocarnicoma), 184B5 (nonmalignant, mammary gland derived), CCRF-CEM (lymphoblastic leukemia), HT-29 (colon carcinoma), HTB-54 (lung carcinoma), BEAS-2B (nonmalignant, derived from the bronchial epithelium) and PC-3 (prostate carcinoma). MCF-7, CCRF-CEM, HT-29, HTB-54, BEAS-2B and PC-3 cell lines were grown in RPMI medium (Gibco) supplemented with 10% fetal bovine serum (FBS; Gibco), 100 units/mL penicillin and […] streptomycin (Gibco). 184B5 cells were grown in DMEM/F12 medium supplemented with 5% FBS, 1 × ITS (Lonza), 100 nM hydrocortisone (Aldich), 2 mM sodium pyruvate (Lonza), 20 ng/mL EGF (Sigma-Aldrich), 0.3 nM trans-retinoic acid (Sigma-Aldrich), 100 units/mL penicillin and […] streptomycin. Cells were maintained at 37 °C and 5% CO2.
(§2) The cytotoxic effect of each substance was tested by the MTT method. Each compound was initially dissolved in DMSO at a concentration of 0.01 M, and serial dilutions were prepared with nonsupplemented medium. The cytotoxic effect of each compound was tested at 50 and 10 µM as a first screening. […]
(§3) A total of 1 × 10^4 cells/well in 96-well plates were treated with increasing concentrations of the corresponding compounds for 48 h at 37 °C in a humidified atmosphere containing 5% CO2. Then, cells were incubated with 50 µL of MTT (2 mg/mL stock) for 4 h. The medium was then removed by aspiration, and the formazan crystals were dissolved in […] of DMSO. […] Data were obtained from at least 3 independent experiments performed in quadruplicate. The standard error of the means (SEM) for the cytotoxic parameters was calculated applying the standard deviation formula to the mean values of each parameter for the three independent experiments performed.
(§4) . Cisplatin was used as a standard drug. […]. […] The presence of electron-withdrawing groups (-NO2, -CF3, -Cl) in the phenyl ring favored the cytotoxic activity in the amides, but in the phosphoramidates, the best results were obtained for aliphatic chains methoxy (II.1b, II.2b) and ethoxy (II.1d, II.2d). […].
(§5) The lack of selectivity toward cancerous cells is one of the major issues during the discovery and development of new anticancer agents. Therefore, we evaluated the cytotoxic activity of our compounds against two cell lines derived from nonmalignant breast tissue (184B5) and no malignant bronchial epithelium (BEAS-2B) (Table 2). […].

[3] = as above; format: cell-based; details: human
Description: as §1, §2, §3, §4, §5

BEAS-2B = assay: MTT cytotoxicity in nonmalignant bronchial epithelium cells; format: cell-based; details: Homo sapiens, BEAS-2B, nonmalignant cells, 48 h; for GI50: read-out: GI50 BEAS-2B; for IC (TGI): read-out: TGI BEAS-2B
Description: as §1, §2, §3, §4, §5

[4] = as above; format: cell-based; details: human
Description: as §1, §2, §3, §4, §5

HTB-54 [5] = assay: cells; format: cell-based; details: Homo sapiens; for CC50: HTB-54, 48 h, read-out: LC50 HTB54; for GI50 / IC (TGI): HTB-54, 48 h, average ± SEM; for GI50: read-out: GI50 HTB54; for IC (TGI): read-out: TGI HTB54
Description: as §1, §2, §3, §4

PC-3 [6] = assay: cells; format: cell-based; details: Homo sapiens; for LC50: PC-3, 48 h, read-out: LC50 PC-3; for GI50 / IC (TGI): PC-3, 48 h, average ± SEM; for GI50: read-out: GI50 PC-3; for IC (TGI): read-out: TGI PC-3
Description: as §1, §2, §3, §4

MCF-7 [7] = details: read-out: GI50 MCF-7; 48 h, average ± SEM
HT-29 [8] = assay: cells; details: Homo sapiens, HT-29, 48 h; for activity at 10 µM: read-out: Cell growth (%) HT-29; for GI50: read-out: GI50 HT-29; for CC50: read-out: LC50 HT-29; for IC (TGI): read-out: TGI HT-29
PC-3 [9] = system: PC-3; design: method as in earlier work; details: DTP database of the NCI; cited from earlier work
HT-29 [10] = system: HT-29; design: method as in earlier work; details: DTP database of the NCI; cited from earlier work
CCRF-CEM [11] = system: CCRF-CEM; design: method as in earlier work; details: DTP database of the NCI; cited from earlier work
MCF-7 [12] = system: MCF-7; design: method as in earlier work; details: DTP database of the NCI; cited from earlier work
HTB-54 [13] = system: HTB-54; design: method as in earlier work; details: DTP database of the NCI, cited from earlier work

Row | Compound | activity at 10 µM (CCRF-CEM [1]) [%] | GI50 (CCRF-CEM [1]) [µM] | CC50 (CCRF-CEM [1]) [µM] | IC (TGI) (CCRF-CEM [1]) [µM] | activity at 10 µM (MCF-7 [2]) [%] | GI50 (MCF-7 [2]) [µM] | CC50 (MCF-7 [2]) [µM] | IC (TGI) (MCF-7 [2]) [µM] | GI50 (184B5) [µM] | IC (TGI) (184B5) [µM] | LC50 (50% lethal concentration) at 48 h [3] [µM] | GI50 (BEAS-2B) [µM] | IC (TGI) (BEAS-2B) [µM] | LC50 (50% lethal concentration) at 48 h [4] [µM] | CC50 (HTB-54 [5]) [µM] | GI50 (HTB-54 [5]) [µM] | IC (TGI) (HTB-54 [5]) [µM] | LC50 (PC-3 [6]) [µM] | GI50 (PC-3 [6]) [µM] | IC (TGI) (PC-3 [6]) [µM] | further results
1 | N#C[Se]c1ccc(NC(=O)c2ccc(Cl)cc2)cc1 [I.2b] | 50.1 | 8.7 ± 1.1 | > 100 | > 100 | 33.5 | < 1 | > 100 | 51.8 ± 2.5 | 0.89 | > 100 | > 100 | > 100 | > 100 | > 100 | > 100 | > 100 | > 100 | > 100 | > 100 | > 100 | Selectivity index (SI) = GI50 (184B5)/GI50 (MCF-7) (184B5; breast): 1.53; GI50 (MCF-7 [7]): 0.5 ± 0.9 µM; activity at 10 µM (HT-29 [8]): 52.3%; GI50 (HT-29 [8]): 16.5 ± 3.6 µM; CC50 (HT-29 [8]): > 100 µM; IC (TGI) (HT-29 [8]): > 100 µM
2 | N.N.[Cl][Pt][Cl] [Cp, cisplatin] |  |  |  |  |  |  |  |  |  |  |  |  |  |  |  |  |  |  |  |  | GI50 (PC-3 [9]): 5 µM; TGI PC-3 (PC-3 [9]): 50.1 µM; GI50 (HT-29 [10]): 7.9 µM; TGI HT-29 (HT-29 [10]): >100 µM; GI50 (CCRF-CEM [11]): 1 µM; TGI CCRF-CEM (CCRF-CEM [11]): 79.6 µM; GI50 (MCF-7 [12]): 3.2 µM; TGI MCF-7 (MCF-7 [12]): >100 µM; TGI HTB54 (HTB-54 [13]): 32.7 µM; GI50 (HTB-54 [13]; read-out: GI50 HTB54): 9.6 µM
3 | N#C[Se]c1ccc(NC(=O)c2ccc([N+](=O)[O-])cc2)cc1 [I.2e] | 50.3 | 31.6 ± 0.4 | > 100 | > 100 | 33.4 | < 1 | > 100 | 54.4 ± 2.7 | 7.13 | > 100 | > 100 | > 100 | > 100 | > 100 | > 100 | > 100 | > 100 | > 100 | > 100 | > 100 | GI50 (MCF-7 [7]): 0.6 ± 0.1 µM; activity at 10 µM (HT-29 [8]): 35.9%; GI50 (HT-29 [8]): 0.8 ± 0.1 µM; CC50 (HT-29 [8]): > 100 µM; IC (TGI) (HT-29 [8]): 58.2 ± 6.4 µM
